Assay results: patent US8779144B2, “Bicycloheteroaryl compounds as P2X7 modulators and uses thereof” (Evotec (US) Inc., priority 2006, dated 2014)

System: IL-1β release from THP-1 cells
Experiment: IL-1β release assay in differentiated THP-1 cells stimulated with BzATP (ELISA)
Assay type: cell-based
Settings: Homo sapiens; for inhibition at 0.3 µM: 0.3 uM compound, BzATP 250 uM, read-out: IL-1β % Inhib. @ 0.3 uM.; for IC50: released IL-1β as in Example 9, four parameter logistic fit, read-out: IL-Iβ IC50
Protocol: THP-1 cells (ATCC Cat #285-IF-100) are plated in 96 well plates at a concentration of 200,000 cells per well and allowed to differentiate in RPMI-1640 media (ATCC Cat #30-2001) containing 10% FBS, 100 IU/mL penicillin, 100 ug/mL streptomycin, 100 ng/mL LPS and 100 ng/mL IFN-γ for 16 hours. Following differentiation, the cells are treated for an additional 2 hours in RPMI-1640 media containing 100 IU/mL penicillin, 100 ug/mL streptomycin and fresh LPS at 100 ng/mL. The cells are then pretreated for 30 minutes with the compound of interest at the appropriate concentration in RPMI media containing 100 IU/mL penicillin, 100 ug/mL streptomycin. Following the pretreatment 2′,3′-O-(4-benzoylbenzoyl)-adenosine 5′-triphosphate (Sigma Aldrich Cat # B6396) is added to a final concentration of 250 uM and the cells are incubated for an additional 45 minutes. 30 uL of cell supernatant is then collected and IL-113 levels determined via ELISA (R&D systems Cat. # HSLB50) according to manufacturer's recommendations using the Tecan Safire plate reader. Background adjusted IL-1β levels of drug treated and non-treated cells are used to calculate the percent inhibition. […]
The compounds set forth in Table 1 were tested for activity in a cellular model as described herein. Specifically, cells were pretreated with differing amounts of the compound under test and released IL-1β determined as in Example 9, above. Measurements were made and IC50 values, presented in Table 2, below, were determined by fitting the data to a four parameter logistic equation using GraphPad Prism software (GraphPad Software, Inc). The equation may be expressed by the following formula: Y=Bottom+(Top−Bottom)/(1+10^((LogEC50−X)*HillSlope)) Where X is the logarithm of concentration, Y is the response and Y starts at Bottom and goes to Top with a sigmoid shape.

Compound	IC50	inhibition at 0.3 µM
O=C(NCc1ccc(C(F)(F)F)cc1)c1cccc2c(=O)n(C3CC3)ccc12 [Compound 2071]	754 nM	0 to 25%
O=C(NCc1ccc(F)c(C(F)(F)F)c1)c1cccc2c(=O)n(C3CC3)ccc12 [Compound 2075]	158 nM	> 76%
O=C(NCc1cccc(C(F)(F)F)c1F)c1cccc2c(=O)n(C3CC3)ccc12 [Compound 2077]	162 nM	51 to 75%
O=C(NCc1ccc(Cl)c(C(F)(F)F)c1)c1cccc2c(=O)n(C(CO)CO)ccc12 [Compound 2053, 2-(2-Hydroxy-1-hydroxymethyl-ethyl)-1-oxo-1,2-dihydro-isoquinoline-5-carboxylic acid 4-chloro-3-trifluoromethyl-benzylamide]	40.4 nM	> 76%
O=C(NCC12CC3CC(CC(C3)C1)C2)c1ncnc2c1CCN(Cc1ccccc1Cl)C2 [Compound 2025]		26 to 50%
Cc1ccc(CN2CCc3c(ncnc3C(=O)NCC3CCCCC3)C2)cc1 [Compound 2013]		0 to 25%
Cc1ccc2c(c1C(=O)NCc1ccc(C(F)(F)F)c(F)c1)CCN(C(=O)C1(C)CC1)C2 [Compound 2082]	667 nM	0 to 25%
O=C(NCC1CCCCC1)c1ncnc2c1CCN(Cc1ccccc1)C2 [Compound 2004]		0 to 25%
O=C(NCCc1ccccc1)c1ncnc2c1CCNC2 [Compound 2003]		0 to 25%
O=C(NCC1CCCCC1)c1ncnc2c1CCNC2 [Compound 2002, 5,6,7,8-Tetrahydro-pyrido[3,4-d]pyrimidine-4-carboxylic acid cyclohexylmethyl-amide]		0 to 25%
O=C(NCc1ccc(Cl)c(C(F)(F)F)c1)c1cccc2c(=O)n(C3CC3)ccc12 [Compound 2078]	59.4 nM	> 76%
Cc1ccc2c(c1C(=O)NCc1ccc(C(F)(F)F)c(F)c1)CCN(C(=O)C1CCC1)C2 [Compound 2081]	149 nM	> 76%
O=C(NCCc1ccccc1Cl)c1ncnc2c1CCN(Cc1ccccc1)C2 [Compound 2001]	> 1000 nM	0 to 25%
O=C(NCC1CCCCC1)c1ncnc2c1CCN(Cc1ccccn1)C2 [Compound 2010]		0 to 25%
O=C(NCC1CCCCC1)c1ncnc2c1CCN(Cc1ccncc1)C2 [Compound 2007]		0 to 25%
O=C(NCc1ccc(C(F)(F)F)c(F)c1)c1cccc2c(=O)n(C3CC3)ccc12 [Compound 2076]	119 nM	> 76%
O=C(NCC1CCCCC1)c1ncnc2c1CCN(Cc1cccnc1)C2 [Compound 2006]		0 to 25%
O=C(NCC1CCCCC1)c1ncnc2c1CCN(Cc1cccc(Cl)c1)C2 [Compound 2011]		0 to 25%
O=C(NCC1CCCCC1)c1ncnc2c1CCN(Cc1ccc(Cl)cc1)C2 [Compound 2009]		0 to 25%

The next lines start with results.

IC50	Compound	inhibition at 0.3 µM
11.6 nM	O=C(NCC1CCCCCC1)c1cccc2c(=O)n(Cc3ccc4c(c3)OCCO4)ccc12 [Compound 2036]	> 76%
> 1000 nM	Cn1ccc2c(C(=O)NCC3(O)CCCC(C)(C)C3)cccc2c1=O (centres unmarked) [Compound 2045]	0 to 25%
> 1000 nM	COCC(O)Cn1ccc2c(C(=O)NCC3(O)CCCC(C)(C)C3)cccc2c1=O (centres unmarked) [Compound 2046]	0 to 25%
21 nM	C[C@H](C(N)=O)n1ccc2c(C(=O)NCc3ccc(Cl)c(C(F)(F)F)c3)cccc2c1=O [Compound 2058, 2-((R)-1-Carbamoyl-ethyl)-1-oxo-1,2-dihydro-isoquinoline-5-carboxylic acid 4-chloro-3-trifluoromethyl-benzylamide]	> 76%
59.2 nM	O=C(NCc1ccc(Cl)c(Cl)c1)c1cccc2c(=O)n(C3CC3)ccc12 [Compound 2072, 2-Cyclopropyl-1-oxo-1,2-dihydro-isoquinoline-5-carboxylic acid 3,4-dichloro-benzylamide]	> 76%
26.1 nM	C[C@H](C(N)=O)n1ccc2c(C(=O)NCC3(O)CCCCCC3)cccc2c1=O [Compound 2057]	> 76%
> 1000 nM	C[C@H](NC(=O)c1cccc2c(=O)n([C@@H](C)C(N)=O)ccc12)c1ccc(Cl)cc1 [Compound 2066]	0 to 25%
212 nM	C[C@H](CO)n1ccc2c(C(=O)NCc3ccc(C(F)(F)F)cc3)cccc2c1=O [Compound 2068]	51 to 75%
152 nM	O=C(NCc1ccc(F)c(Cl)c1)c1cccc2c(=O)n(C3CC3)ccc12 [Compound 2073]	> 76%
214 nM	C[C@@H](C(N)=O)n1ccc2c(C(=O)NCc3ccc(Cl)c(Cl)c3)cccc2c1=O [Compound 2061]	51 to 75%
> 1000 nM	C[C@@H](NC(=O)c1cccc2c(=O)n([C@@H](C)C(N)=O)ccc12)c1ccc(Cl)cc1 [Compound 2067]	0 to 25%
138 nM	O=C(NCC1CCCCCC1)c1cccc2c1CCN(C(CO)CO)C2=O [Compound 2037]	51 to 75%
> 1000 nM	COCC(O)Cn1ccc2c(C(=O)NCC3CCCCCC3)cccc2c1=O (centres unmarked) [Compound 2044]	0 to 25%
257 nM	O=C(NCC1CCCCCC1)c1cccc2c(=O)n(CC(O)CO)ccc12 (centres unmarked) [Compound 2039, 2-(2,3-Dihydroxy-propyl)-1-oxo-1,2-dihydro-isoquinoline-5-carboxylic acid cycloheptylmethyl-amide]	51 to 75%
16.5 nM	O=C(NCC1CCCCCC1)c1cccc2c(=O)n(C3CC3)ccc12 [Compound 2070, 2-Cyclopropyl-1-oxo-1,2-dihydro-isoquinoline-5-carboxylic acid cycloheptylmethyl-amide]	> 76%
77.4 nM	C[C@@H](C(N)=O)n1ccc2c(C(=O)NCc3ccc(Cl)c(C(F)(F)F)c3)cccc2c1=O [Compound 2059, 2-((S)-1-Carbamoyl-ethyl)-1-oxo-1,2-dihydro-isoquinoline-5-carboxylic acid 4-chloro-3-trifluoromethyl-benzylamide]	> 76%
38.2 nM	C[C@H](C(N)=O)n1ccc2c(C(=O)NCc3ccc(Cl)c(Cl)c3)cccc2c1=O [Compound 2060]	> 76%
6.91 nM	C[C@H](CO)n1ccc2c(C(=O)NCC3CCCCCC3)cccc2c1=O [Compound 2069, 2-((R)-2-Hydroxy-1-methyl-ethyl)-1-oxo-1,2-dihydro-isoquinoline-5-carboxylic acid cycloheptylmethyl-amide]	> 76%
145 nM	CC1(C)CCCC(O)(CNC(=O)c2cccc3c(=O)n(CC(O)CO)ccc23)C1 (centres unmarked) [Compound 2042]	51 to 75%
654 nM	CC(C(N)=O)n1ccc2c(C(=O)NCC3CCCCCC3)cccc2c1=O (centres unmarked) [Compound 2050]	0 to 25%
233 nM	CC1(C)CC(C)(C)CC(O)(CNC(=O)c2cccc3c(=O)n(C(CO)CO)ccc23)C1 [Compound 2054]	51 to 75%
269 nM	O=C(NCC1CCCCC1)c1cccc2c(=O)n(C(CO)CO)ccc12 [Compound 2055]	51 to 75%
107 nM	O=C(NCc1ccc(Cl)c(F)c1)c1cccc2c(=O)n(C3CC3)ccc12 [Compound 2074]	> 76%
